Blank lines part the entries; values can stand above or below the compound they belong to.
Tests used:
[1] = tested on: actin.PsoS1 (rabbit psoas myosin S1 bound to pyrene-actin); assay: ATP-induced dissociation of pyr.actin.S1, stopped flow, pyrene fluorescence (fast, psoas); format: biochemical; conditions: for kobs of ATP-induced dissociation: 25 µM ATP; for activation energy (Ea) of K1k+2: Pso
Experimental: (§1) Myosin was prepared from the rabbit psoas (for fast MyHC-II) and the bovine masseter muscle (for slow MyHC-I) according to Margossian and Lowey ([41]), and was subsequently digested to subfragment 1 (S1) with chymotrypsin as described by Weeds and Taylor ([57]) which removes the regulatory light chain region.
(§2) Actin was prepared from rabbit muscle as described by Spudich & Watt ([52]) and labeled with pyrene iodoacetamide to give pyrene-labeled actin as described by Criddle et al. ([15]). Protein stocks of S1 and of pyrene-labeled actin were stored at 4°C and were used for up to 2 wk. In the text herein, reference to actin implies pyrene-labeled actin.
(§3) Stopped-flow experiments were performed essentially as described previously ([4]) using a HiTech Scientific SF-61DX2 stopped-flow system; 4–5 transients were acquired for each ATP transient (Kinetic Studio suite). The dead time of the equipment was 0.002 s. A wide temperature range (5–45°C) for measurements was available because of a new adaptation of the standard stopped-flow machine [see Ref. [56]). Briefly, the samples were held at room temperature (20°C) and then passed through a heat exchanger, at the temperature required for the measurement, just before entering the mixing chamber/observation chamber of the stopped flow. The samples were only exposed to the temperature of the measurement for a few seconds, thus allowing measurements of proteins under conditions where they are not usually stable for long.
(§4) The ATP-induced dissociation rate of actin.S1 was measured in the stopped flow by mixing a fixed concentration of pyr.actin.S1 complex (end concentration 0.25 µM) with excess ATP and monitoring fluorescence transients from the pyrene-labeled actin [excitation at 365 nm, emission through a KV389 nm cutoff filter (Schott, Mainz, Germany)]. Details of the kinetic analysis are given under Data Fitting and Interpretation Approach.
(§5) The averaged transients were fitted with a single (Eqn 1) or, if needed, a double exponential equation (Eqn 2):(1)) Ft=ΔF·e^(^−kobs·t)+F∞ or(2)) Ft=ΔF(1)·e^(^−kobs(1)·t)+ΔF(2)·e^(^−kobs(2)·t)+F∞ where Ft is the observed fluorescence at time t, F∞ is the fluorescence at the end of the transient (t = ∞) and ΔF is the total change of fluorescence observed. […] A plot of [ATP] vs. kobs was used to derive the values of K1 and k+2 (using Origin software version 6.0), as defined in Fig. 1 and Eqn 3.
(§6) The values of –Ea/R or or ΔH°/R were derived from the slopes.

actin.MassS1 = target: T1, actin.MassS1 (Bos taurus, UniProt Q9BE39); assay: ADP release rate constant (k-AD), ADP displacement by excess ATP; format: biochemical, bovine; set-up: effect of Pi on kobs of ADP release / increase in kobs of ADP release in the presence of phosphate / activation energy (Ea) of k−AD (ADP release): dose or concentration left out as unconfirmed; conditions: […] mM Pi
T1 construct: from tissue; host or cells: bovine masseter muscle (myosin); rabbit muscle (actin)
Experimental: Two types of myosins were studied which are known to differ in their dissociation constant for nucleotides ([5], [51]). The rate constant for the release of ADP (k−ADP) is relatively slow for masseter S1 and can easily be measured in an ADP displacement experiment. This step is very fast for a fast muscle isoform and too fast to measure by current equipment. Briefly, actin.^MassS1 saturated with 75 µM of ADP (A.M.D complex) was mixed with a large excess of ATP (8 mM) in the stopped flow. Then the kobs values, fitted to a single exponential equation (Eqn 1) defined the rate constant by which ADP is released by the ternary A.M.D complex (k−AD).
The temperature dependence of the above studied biochemical steps K1k+2, KADP, KPi, and KADP+Pi data were plotted as the natural logarithm of the measured parameter against the reciprocal of temperature in degrees Kelvin (1/T °K) and fitted with linear regression using the Arrhenius (rate constants) or Van’t Hoff (equilibrium constants) equations(7)) lnK1k+2=ln(A)−Ea/RT (8)) lnKeq=ΔS°/R−ΔH°/RT where Ea stands for activation energy, R is the gas constant, and A is a preexponential factor. The values of –Ea/R or or ΔH°/R were derived from the slopes.

[2] = target: T2, actin.MassS1 (bovine masseter myosin S1 bound to pyrene-actin) (Bos taurus, UniProt Q9BE39); assay: ATP-induced dissociation of pyr.actin.S1, stopped flow, pyrene fluorescence (slow, masseter); format: biochemical; set-up: reduction of amplitude of the dissociation reaction in the presence of phosphate / increase of activation energy by phosphate / activation energy (Ea) of K1k+2: dose or concentration left out as unconfirmed; conditions: for kobs of ATP-induced dissociation: 25 µM ATP; for activation energy (Ea) of K1k+2: Mass
T2 construct: from tissue; host or cells: bovine masseter muscle (myosin); rabbit muscle (actin)
Experimental: as §1, §2, §3
as §4, with “([…])” for “(end concentration 0.25 µM)”
as §5, §6

increase in kobs of ADP release in the presence of phosphate (actin.MassS1; pH 6.2): 30–50% | effect of Pi on kobs of ADP release (actin.MassS1; pH 7.0): little effect | reduction of amplitude of the dissociation reaction in the presence of phosphate ([2]; MassS1, […] mM Pi): 50% | increase of activation energy by phosphate ([2]; masseter, […] mM Pi vs no Pi): about 5 kJ/mol
Compound: O=P(O)(O)O [Pi, inorganic phosphate]
reduction of amplitude of the dissociation reaction in the presence of phosphate ([1]; PsoS1, 30 mM Pi): 50% | increase of activation energy by phosphate ([1]; PsoS1, both pH values, 30 mM Pi vs no Pi): about 10 kJ/mol

kobs of ATP-induced dissociation ([2]; 0.5 µM pyrAct.MassS1, pH 7.0, 5°C): 26.7 s⁻¹ | kobs of ATP-induced dissociation ([2]; 0.5 µM pyrAct.MassS1, pH 7.0, 25°C): 46.7 s⁻¹ | kobs of ATP-induced dissociation ([2]; 0.5 µM pyrAct.MassS1, pH 7.0, 35°C): 64.9 s⁻¹ | kobs of ATP-induced dissociation ([2]; 0.5 µM pyrAct.MassS1, pH 7.0, […]°C): 36.1 s⁻¹ | kobs of ATP-induced dissociation ([2]; zero ADP, 20°C, pH 7.0): 37.5 s⁻¹ | activation energy (Ea) of K1k+2 ([2]; pH 6.2, + […] mM Pi): 7.34 ± 0.17 kcal/mol | activation energy (Ea) of K1k+2 ([2]; pH 6.2, no Pi, 5–43°C): 5.69 ± 0.263 kcal/mol | activation energy (Ea) of K1k+2 ([2]; pH 7.0, + […] mM Pi): 7.15 ± 0.263 kcal/mol | activation energy (Ea) of K1k+2 ([2]; pH 7.0, no Pi, 5–43°C): 6.14 ± 0.335 kcal/mol | activation energy of the dissociation rate constant ([2]; masseter, in the presence of phosphate, irrespective of pH): 7.17 ± 0.24 kcal/mol
Compound: Nc1ncnc2c1ncn2[C@@H]1O[C@H](COP(=O)(O)OP(=O)(O)OP(=O)(O)O)[C@@H](O)[C@H]1O [ATP]
kobs of ATP-induced dissociation ([1]; 0.5 µM pyr-act.PsoS1, pH 7.0, 5°C): 84.8 s⁻¹ | kobs of ATP-induced dissociation ([1]; 0.5 µM pyr-act.PsoS1, pH 7.0, 25°C): 208.5 s⁻¹ | kobs of ATP-induced dissociation ([1]; 0.5 µM pyr-act.PsoS1, pH 7.0, 35°C): 296.9 s⁻¹ | kobs of ATP-induced dissociation ([1]; 0.5 µM pyr-act.PsoS1, pH 7.0, 43°C): 374.4 s⁻¹ | kobs of ATP-induced dissociation ([1]; 0.5 µM pyr-act.PsoS1, pH 7.0, […]°C): 136.2 s⁻¹ | kobs of ATP-induced dissociation ([1]; zero ADP, 20°C, pH 7.0): 87.7 s⁻¹ | activation energy (Ea) of K1k+2 ([1]; pH 6.2, + 30 mM Pi): 9.37 ± 0.382 kcal/mol | activation energy (Ea) of K1k+2 ([1]; pH 6.2, no Pi, 5–43°C): 7 ± 0.19 kcal/mol | activation energy (Ea) of K1k+2 ([1]; pH 7.0, + 30 mM Pi): 9.01 ± 0.287 kcal/mol | activation energy (Ea) of K1k+2 ([1]; pH 7.0, no Pi, 5–43°C): 6.76 ± 0.19 kcal/mol | activation energy of the dissociation rate constant ([1]; psoas, in the presence of phosphate, irrespective of pH): 9.08 ± 0.24 kcal/mol

Reference: publication PMC5814585, “Modulators of actin-myosin dissociation: basis for muscle type functional differences during fatigue” (American Journal of Physiology - Cell Physiology, 2017)
